Article PMC7316778 (Nature Communications, 2020)
Where “and” joins values, the source holds several entries; their conditions need not be identical. Equal values may be shown once. Read-outs that look alike come from different tables or passages of the source.

Experiments:
SNF1LK2 = SNF1LK2 (Homo sapiens, UniProt Q9H0K1); experiment: SelectScreen kinase assay
Protocol: (§3) Selectivity profiling assays were performed by the Invitrogen SelectScreen™ Services. […] The concentration of ATP was selected to be equal to the KM, unless indicated otherwise.

EPHA2 = EPHA2 (Homo sapiens, UniProt P29317); experiment: SelectScreen kinase assay
Protocol: as §3

ACVR1B (ALK4) = molecular target: T1, ACVR1B (ALK4) (Homo sapiens, UniProt P36896); experiment: SelectScreen kinase assay; settings: for Inhibition at 1 µM (%): ACVR1B (ALK4), ZLYTE, ATP Km app
T1 sequence (P36896 24-505): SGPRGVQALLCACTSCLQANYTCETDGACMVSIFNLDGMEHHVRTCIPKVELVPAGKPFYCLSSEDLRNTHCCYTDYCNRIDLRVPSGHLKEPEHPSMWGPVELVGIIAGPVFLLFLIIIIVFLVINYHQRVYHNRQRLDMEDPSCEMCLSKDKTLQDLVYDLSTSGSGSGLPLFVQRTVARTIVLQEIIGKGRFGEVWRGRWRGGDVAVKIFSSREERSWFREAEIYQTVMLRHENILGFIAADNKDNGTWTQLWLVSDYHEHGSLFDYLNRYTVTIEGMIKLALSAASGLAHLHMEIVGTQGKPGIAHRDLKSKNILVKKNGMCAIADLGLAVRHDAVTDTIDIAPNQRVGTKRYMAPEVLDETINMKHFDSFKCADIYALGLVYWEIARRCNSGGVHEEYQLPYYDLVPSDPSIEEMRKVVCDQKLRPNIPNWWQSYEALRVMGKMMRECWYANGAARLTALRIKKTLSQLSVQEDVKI
Protocol: as §3

PIP5K1A = PIP5K1A (Homo sapiens, UniProt Q99755); experiment: SelectScreen kinase assay
PIP5K1A, sequence (Q99755 whole entry): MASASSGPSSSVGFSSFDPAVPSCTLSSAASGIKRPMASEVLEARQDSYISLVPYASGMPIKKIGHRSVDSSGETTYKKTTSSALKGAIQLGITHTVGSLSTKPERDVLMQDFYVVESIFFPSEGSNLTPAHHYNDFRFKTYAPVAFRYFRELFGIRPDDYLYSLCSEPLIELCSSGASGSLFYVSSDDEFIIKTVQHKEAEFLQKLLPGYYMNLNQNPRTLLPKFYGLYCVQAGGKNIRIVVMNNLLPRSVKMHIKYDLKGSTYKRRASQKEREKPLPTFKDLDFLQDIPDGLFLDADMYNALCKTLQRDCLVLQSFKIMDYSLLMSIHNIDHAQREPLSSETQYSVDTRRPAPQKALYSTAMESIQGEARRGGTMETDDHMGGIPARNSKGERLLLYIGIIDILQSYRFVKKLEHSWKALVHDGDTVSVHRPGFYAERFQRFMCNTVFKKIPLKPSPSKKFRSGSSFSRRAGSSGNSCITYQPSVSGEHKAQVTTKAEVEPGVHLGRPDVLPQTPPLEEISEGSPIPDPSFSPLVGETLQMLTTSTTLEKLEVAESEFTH
Protocol: as §3

MAP3K8 (COT) [1] = molecular target: MAP3K8 (COT) (Homo sapiens, UniProt P41279); experiment: SelectScreen kinase assay
MAP3K8 (COT) (Homo sapiens, UniProt P41279), sequence (P41279 whole entry, species assumed): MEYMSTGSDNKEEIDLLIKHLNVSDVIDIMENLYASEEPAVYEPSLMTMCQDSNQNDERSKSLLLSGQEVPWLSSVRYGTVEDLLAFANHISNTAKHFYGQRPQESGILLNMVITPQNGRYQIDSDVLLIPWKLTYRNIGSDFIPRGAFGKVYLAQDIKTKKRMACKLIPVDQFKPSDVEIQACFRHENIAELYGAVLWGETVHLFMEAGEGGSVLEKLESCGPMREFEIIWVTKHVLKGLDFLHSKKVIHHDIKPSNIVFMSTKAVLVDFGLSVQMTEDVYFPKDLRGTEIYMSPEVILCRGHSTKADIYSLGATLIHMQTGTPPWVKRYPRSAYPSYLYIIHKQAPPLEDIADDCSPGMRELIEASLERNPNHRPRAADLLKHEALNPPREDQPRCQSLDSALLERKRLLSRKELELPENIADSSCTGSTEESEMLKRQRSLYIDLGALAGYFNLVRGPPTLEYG
Protocol: as §3

MAP3K8 (COT) [2] = experiment: SelectScreen kinase assay; settings: IC50 on that kinase divided by IC50 on FES^S700C
Protocol: as §3

EPHA8 = EPHA8 (Homo sapiens, UniProt P29322); experiment: SelectScreen kinase assay
Protocol: as §3

CLK1 = CLK1 (Homo sapiens, UniProt P49759); experiment: SelectScreen kinase assay
CLK1, sequence (P49759 whole entry): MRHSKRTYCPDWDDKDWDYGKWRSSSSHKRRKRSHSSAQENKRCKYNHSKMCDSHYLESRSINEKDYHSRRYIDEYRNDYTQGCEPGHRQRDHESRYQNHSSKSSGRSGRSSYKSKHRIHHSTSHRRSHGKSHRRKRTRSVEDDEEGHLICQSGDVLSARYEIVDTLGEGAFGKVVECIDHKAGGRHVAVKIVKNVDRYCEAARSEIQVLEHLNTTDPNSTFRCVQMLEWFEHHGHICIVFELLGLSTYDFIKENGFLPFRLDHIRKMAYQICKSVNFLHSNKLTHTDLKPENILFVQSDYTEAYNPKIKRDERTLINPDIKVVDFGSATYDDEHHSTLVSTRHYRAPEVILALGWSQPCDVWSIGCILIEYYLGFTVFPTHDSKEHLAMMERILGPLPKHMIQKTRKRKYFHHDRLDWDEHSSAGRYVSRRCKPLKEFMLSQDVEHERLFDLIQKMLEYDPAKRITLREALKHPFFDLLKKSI
Protocol: as §3

FES^S700C HL-60 cells = experiment: Proliferation ratio during macrophage differentiation; type: cell-based, human; settings: for Proliferation ratio: Figure 6e, S700C
Protocol: (§1) Cells were pretreated with vehicle or WEL028 (100 or 1000 nM, 1 h) prior to induction of differentiation towards monocytes/macrophages with PMA (16 nM, 48 h). Medium was refreshed with growth medium containing WEL028 and PMA after 24 h to maintain full FES inhibition. […] Threshold for CD11b-positive cells was determined using isotype control antibody. […] Kinases with native cysteine at DFG-1 position are shown in bold. All data represent means ± SEM.
(§2) Cell lines were purchased at ATCC (HEK293T: ATCC® CRL-11268™, U2OS: ATCC® HTB-96™, HL-60: ATCC® CCL-240™) and were tested on regular basis for mycoplasma contamination. Cultures were discarded after 2–3 months of use. HEK293T (human embryonic kidney) and U2OS (human osteosarcoma) cells were cultured at 37 °C under 7% CO2 in DMEM containing phenol red, stable glutamine, 10% (v/v) high iron newborn calf serum (Seradigm), penicillin and streptomycin (200 μg/mL each; Duchefa). Medium was refreshed every 2–3 days and cells were passaged two times a week at 80–90% confluence. HL-60 (human promyeloblast) cells were cultured at 37 °C under 5% CO2 in HEPES-supplemented RPMI containing phenol red, stable glutamine, 10% (v/v) fetal calf serum (Biowest), penicillin and streptomycin (200 μg/mL each), unless stated otherwise. Cell density was maintained between 0.2 × 10^6 and 2.0 × 10^6 cells/mL. Cell viability was assessed by Trypan Blue exclusion and quantification using a TC20™ Automated Cell Counter (Bio-Rad).

WT HL-60 cells = experiment: as above; type: cell-based, human; settings: Figure 6e
Protocol: as §1, §2

MARK1 (MARK) = MARK1 (MARK) (Homo sapiens, UniProt Q9P0L2); experiment: SelectScreen kinase assay
Protocol: as §3

PI4K2A (PI4K2 alpha) = PI4K2A (PI4K2 alpha) (Homo sapiens, UniProt Q9BTU6); experiment: SelectScreen kinase assay
PI4K2A (PI4K2 alpha), sequence (Q9BTU6 whole entry): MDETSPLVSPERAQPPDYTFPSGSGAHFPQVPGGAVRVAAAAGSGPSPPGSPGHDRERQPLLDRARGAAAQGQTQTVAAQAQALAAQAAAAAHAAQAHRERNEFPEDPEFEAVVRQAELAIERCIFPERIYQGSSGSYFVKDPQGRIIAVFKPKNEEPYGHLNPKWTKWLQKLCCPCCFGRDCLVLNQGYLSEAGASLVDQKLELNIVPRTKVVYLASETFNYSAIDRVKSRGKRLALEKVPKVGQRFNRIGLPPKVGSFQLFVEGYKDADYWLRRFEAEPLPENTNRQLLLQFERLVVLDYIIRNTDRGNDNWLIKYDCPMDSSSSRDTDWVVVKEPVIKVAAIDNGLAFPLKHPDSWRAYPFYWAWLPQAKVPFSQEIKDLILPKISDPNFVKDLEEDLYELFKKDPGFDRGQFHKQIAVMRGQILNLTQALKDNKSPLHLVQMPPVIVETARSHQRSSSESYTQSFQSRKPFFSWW
Protocol: as §3

MAP3K2 (MEKK2) = MAP3K2 (MEKK2) (Homo sapiens, UniProt Q9Y2U5); experiment: SelectScreen kinase assay
MAP3K2 (MEKK2), sequence (Q9Y2U5 whole entry): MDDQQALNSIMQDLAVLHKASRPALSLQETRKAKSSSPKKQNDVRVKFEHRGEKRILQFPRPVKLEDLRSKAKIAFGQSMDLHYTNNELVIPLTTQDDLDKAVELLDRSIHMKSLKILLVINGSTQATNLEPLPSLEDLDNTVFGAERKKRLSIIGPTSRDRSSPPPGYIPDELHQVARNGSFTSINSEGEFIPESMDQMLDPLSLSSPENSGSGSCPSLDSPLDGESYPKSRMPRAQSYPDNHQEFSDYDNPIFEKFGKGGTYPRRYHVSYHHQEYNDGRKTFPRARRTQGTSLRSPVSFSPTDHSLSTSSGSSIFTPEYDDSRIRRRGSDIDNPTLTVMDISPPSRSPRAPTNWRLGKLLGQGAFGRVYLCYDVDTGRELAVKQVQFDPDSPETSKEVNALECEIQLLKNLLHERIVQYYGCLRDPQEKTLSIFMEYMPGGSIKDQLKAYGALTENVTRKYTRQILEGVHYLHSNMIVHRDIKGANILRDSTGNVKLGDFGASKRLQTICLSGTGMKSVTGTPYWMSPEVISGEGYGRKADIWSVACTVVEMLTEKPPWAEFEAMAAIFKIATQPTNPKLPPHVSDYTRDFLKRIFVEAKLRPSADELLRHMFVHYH
Protocol: as §3

CDK9/cyclin K = CDK9/cyclin K (Homo sapiens, UniProt P50750); experiment: SelectScreen kinase assay; settings: for Inhibition at 1 µM (%): CDK9/cyclin K, LanthaScreen Binding
CDK9/cyclin K, sequence (P50750 whole entry): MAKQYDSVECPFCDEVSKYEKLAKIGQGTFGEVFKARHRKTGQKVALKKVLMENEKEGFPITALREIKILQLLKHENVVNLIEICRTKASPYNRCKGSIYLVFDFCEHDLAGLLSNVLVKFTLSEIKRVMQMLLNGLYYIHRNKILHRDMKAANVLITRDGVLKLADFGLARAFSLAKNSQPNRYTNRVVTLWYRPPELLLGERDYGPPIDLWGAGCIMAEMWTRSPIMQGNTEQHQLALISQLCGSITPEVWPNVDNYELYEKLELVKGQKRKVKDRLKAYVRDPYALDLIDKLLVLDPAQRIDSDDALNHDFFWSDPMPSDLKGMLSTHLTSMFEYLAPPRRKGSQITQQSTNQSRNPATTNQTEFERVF
CDK9/cyclin K, sequence (O75909 whole entry partner): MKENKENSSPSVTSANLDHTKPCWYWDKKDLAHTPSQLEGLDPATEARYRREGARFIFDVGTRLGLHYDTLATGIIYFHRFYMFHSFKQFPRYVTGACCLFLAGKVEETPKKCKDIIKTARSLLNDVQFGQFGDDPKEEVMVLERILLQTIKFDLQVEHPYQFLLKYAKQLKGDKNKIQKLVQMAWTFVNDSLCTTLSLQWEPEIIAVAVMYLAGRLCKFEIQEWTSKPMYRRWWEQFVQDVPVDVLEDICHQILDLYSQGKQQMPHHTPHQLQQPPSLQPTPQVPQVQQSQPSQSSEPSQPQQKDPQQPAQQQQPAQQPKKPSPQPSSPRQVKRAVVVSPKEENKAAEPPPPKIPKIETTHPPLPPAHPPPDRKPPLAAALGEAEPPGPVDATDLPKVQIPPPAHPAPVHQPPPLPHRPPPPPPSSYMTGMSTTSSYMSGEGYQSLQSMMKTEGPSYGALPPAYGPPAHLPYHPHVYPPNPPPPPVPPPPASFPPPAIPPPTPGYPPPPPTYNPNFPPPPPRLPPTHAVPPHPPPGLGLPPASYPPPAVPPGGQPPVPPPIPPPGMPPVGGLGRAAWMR
Protocol: as §3

MAP2K1 (MEK1) = MAP2K1 (MEK1) (Homo sapiens, UniProt Q02750); experiment: SelectScreen kinase assay
MAP2K1 (MEK1), sequence (Q02750 whole entry, species assumed): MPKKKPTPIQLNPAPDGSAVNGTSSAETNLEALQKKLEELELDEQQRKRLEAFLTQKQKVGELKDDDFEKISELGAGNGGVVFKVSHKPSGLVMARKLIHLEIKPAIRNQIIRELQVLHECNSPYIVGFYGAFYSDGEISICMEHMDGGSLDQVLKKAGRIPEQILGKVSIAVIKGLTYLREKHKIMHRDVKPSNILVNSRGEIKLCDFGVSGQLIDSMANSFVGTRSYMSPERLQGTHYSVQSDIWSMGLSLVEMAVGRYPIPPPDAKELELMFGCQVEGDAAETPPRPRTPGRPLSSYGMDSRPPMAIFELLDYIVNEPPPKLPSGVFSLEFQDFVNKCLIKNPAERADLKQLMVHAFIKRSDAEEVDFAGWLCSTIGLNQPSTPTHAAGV
Protocol: as §3

INSR = INSR (Homo sapiens, UniProt P06213); experiment: SelectScreen kinase assay
Protocol: as §3

[3] = 1 h, 1 μM WEL028, 1 h preincubation
[4] = 1 h, log[inhibitor] (M) -5.00, ZLYTE, ATP 100
[5] = 1 h, log[inhibitor] (M) -5.48, ZLYTE, ATP 100
[6] = 1 h, log[inhibitor] (M) -5.95, ZLYTE, ATP 100
[7] = 1 h, log[inhibitor] (M) -6.43, ZLYTE, ATP 100
[8] = 1 h, log[inhibitor] (M) -6.91, ZLYTE, ATP 100
[9] = 1 h, log[inhibitor] (M) -7.39, ZLYTE, ATP 100
[10] = 1 h, log[inhibitor] (M) -7.86, ZLYTE, ATP 100
[11] = 1 h, log[inhibitor] (M) -8.82, ZLYTE, ATP 100
[12] = 1 h, log[inhibitor] (M) -9.31, ZLYTE, ATP 100
[13] = 1 h, log[inhibitor] (M) -[…], ZLYTE, ATP 100
[14] = read-out: Inhibition at 1 µM (%)

SNF1LK2, sequence (Q9H0K1 whole entry): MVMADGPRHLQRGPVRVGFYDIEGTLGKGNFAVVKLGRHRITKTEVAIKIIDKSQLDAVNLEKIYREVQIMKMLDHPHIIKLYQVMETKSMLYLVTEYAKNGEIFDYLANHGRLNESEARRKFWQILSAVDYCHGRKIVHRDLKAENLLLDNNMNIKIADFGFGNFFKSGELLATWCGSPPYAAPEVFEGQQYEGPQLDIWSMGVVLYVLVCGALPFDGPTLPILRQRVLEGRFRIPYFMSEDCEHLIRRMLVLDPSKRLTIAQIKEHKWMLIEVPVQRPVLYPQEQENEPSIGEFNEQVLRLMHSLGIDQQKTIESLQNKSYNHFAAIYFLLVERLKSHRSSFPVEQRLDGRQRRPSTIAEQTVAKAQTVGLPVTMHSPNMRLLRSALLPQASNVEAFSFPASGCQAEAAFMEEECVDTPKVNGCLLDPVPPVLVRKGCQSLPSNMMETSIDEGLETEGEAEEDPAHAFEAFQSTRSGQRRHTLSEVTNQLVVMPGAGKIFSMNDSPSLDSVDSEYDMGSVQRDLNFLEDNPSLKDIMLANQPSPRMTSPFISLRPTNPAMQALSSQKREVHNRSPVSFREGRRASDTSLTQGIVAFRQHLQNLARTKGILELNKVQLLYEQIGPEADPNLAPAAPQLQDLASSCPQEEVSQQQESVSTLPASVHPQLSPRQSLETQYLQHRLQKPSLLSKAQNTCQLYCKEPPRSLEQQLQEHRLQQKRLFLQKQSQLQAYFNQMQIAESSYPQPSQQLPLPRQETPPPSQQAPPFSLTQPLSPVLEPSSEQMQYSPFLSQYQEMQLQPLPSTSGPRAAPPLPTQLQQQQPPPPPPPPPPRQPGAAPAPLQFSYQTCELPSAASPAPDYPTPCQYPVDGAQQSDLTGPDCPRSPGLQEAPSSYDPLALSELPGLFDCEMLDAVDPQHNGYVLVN

C#CCOc1ccc(Nc2ncc(Cl)c(Nc3ccccc3NC(=O)C=C)n2)c(OC)c1 [Compound 6]
Inhibition at 1 µM (%) (SNF1LK2; 1 µM, ZLYTE, ATP Km app, listed as WEL028, 1 µM): -8% and -5% | inhibition at 1 µM (SNF1LK2; [3]): -6% | inhibition at 1 µM (EPHA2; [3]): 7% | Inhibition at 1 µM (%) (EPHA2; EPHA2, 1 µM, ZLYTE, ATP Km app): 13% | inhibition at 1 µM (ACVR1B (ALK4); [3]): 1% | Inhibition at 1 µM (%) (ACVR1B (ALK4)): -2% | Inhibition at 1 µM (%) (ACVR1B (ALK4); listed as WEL028, 1 µM): 5% | inhibition at 1 µM (PIP5K1A; [3]): -3% | Inhibition at 1 µM (%) (PIP5K1A; PIP5K1A, 1 µM, Adapta, ATP 10, listed as WEL028, 1 µM): 1% and -7% | IC50 (MAP3K8 (COT) [1]): 251 nM | inhibition at 1 µM (MAP3K8 (COT) [1]; [3]): 77% | inhibition at 10 µM (MAP3K8 (COT) [1]; [4]): 100% | inhibition at 3.311 µM (MAP3K8 (COT) [1]; [5]): 101% | inhibition at 1.122 µM (MAP3K8 (COT) [1]; [6]): 95% | inhibition at 0.3715 µM (MAP3K8 (COT) [1]; [7]): 67% | inhibition at 0.123 µM (MAP3K8 (COT) [1]; [8]): 46% | inhibition at 0.04074 µM (MAP3K8 (COT) [1]; [9]): 34% | inhibition at 0.0138 µM (MAP3K8 (COT) [1]; [10]): 24% | inhibition at 0.001514 µM (MAP3K8 (COT) [1]; [11]): 15% | inhibition at 0.0004898 µM (MAP3K8 (COT) [1]; [12]): 17% | inhibition at 0.004571 µM (MAP3K8 (COT) [1]; [13]): 17% | Inhibition at 1 µM (%) (MAP3K8 (COT) [1]; MAP3K8 (COT), 1 µM, ZLYTE, ATP 100, listed as WEL028, 1 µM): 82% | inhibition at 1 µM (MAP3K8 (COT) [1]; read-out: Inhibition at 1 µM (%), MAP3K8 (COT), 1 µM, ZLYTE, ATP 100): 73% | Apparent fold selectivity (MAP3K8 (COT) [2]): 57 fold | inhibition at 1 µM (EPHA8; 1 h): -7% | inhibition at 1 µM (EPHA8; [14]): -7% | inhibition at 1 µM (CLK1; [3]): 5% | Inhibition at 1 µM (%) (CLK1; CLK1, 1 µM, ZLYTE, ATP Km app, listed as WEL028, 1 µM): 1% and 8% | Cell proliferation (FES^S700C HL-60 cells; 100 nM WEL028 vs vehicle): decreased to identical levels | Cell proliferation (FES^S700C HL-60 cells; 1 µM WEL028): less pronounced decrease in proliferation | Proliferation ratio (FES^S700C HL-60 cells; WEL028 100 nM): 1.219 and 1.226 and 1.503 | Proliferation ratio (FES^S700C HL-60 cells; WEL028 1 µM): 2.372 and 2.5075 and 3.084 | Proliferation ratio (WT HL-60 cells; WEL028 100 nM): 1.995 and 1.877 and 1.706 | Proliferation ratio (WT HL-60 cells; WEL028 1 µM): 2.7225 and 2.805 and 3.0525 | inhibition at 1 µM (MARK1 (MARK); [3]): 1% | Inhibition at 1 µM (%) (MARK1 (MARK); MARK1 (MARK), 1 µM, ZLYTE, ATP Km app, listed as WEL028, 1 µM): -1% and 4% | inhibition at 1 µM (PI4K2A (PI4K2 alpha); [3]): 0% | Inhibition at 1 µM (%) (PI4K2A (PI4K2 alpha); PI4K2A (PI4K2 alpha), 1 µM, Adapta, ATP 10, listed as WEL028, 1 µM): 2% and -2% | inhibition at 1 µM (MAP3K2 (MEKK2); [3]): 3% | Inhibition at 1 µM (%) (MAP3K2 (MEKK2); MAP3K2 (MEKK2), 1 µM, LanthaScreen Binding, listed as WEL028, 1 µM): 6% and 1% | inhibition at 1 µM (CDK9/cyclin K; [3]): 5% | Inhibition at 1 µM (%) (CDK9/cyclin K): 2% | Inhibition at 1 µM (%) (CDK9/cyclin K; listed as WEL028, 1 µM): 7% | IC50 (MAP2K1 (MEK1)): 251 nM | inhibition at 10 µM (MAP2K1 (MEK1); [4]): 110% | inhibition at 3.311 µM (MAP2K1 (MEK1); [5]): 106% | inhibition at 1.122 µM (MAP2K1 (MEK1); [6]): 106% | inhibition at 0.3715 µM (MAP2K1 (MEK1); [7]): 78% | inhibition at 0.123 µM (MAP2K1 (MEK1); [8]): 44% | inhibition at 0.04074 µM (MAP2K1 (MEK1); [9]): 29% | inhibition at 0.0138 µM (MAP2K1 (MEK1); [10]): 40% | inhibition at 0.001514 µM (MAP2K1 (MEK1); [11]): 19% | inhibition at 0.0004898 µM (MAP2K1 (MEK1); [12]): 18% | inhibition at 0.004571 µM (MAP2K1 (MEK1); [13]): 27% | Apparent fold selectivity (MAP2K1 (MEK1); IC50 on that kinase divided by IC50 on FES^S700C): 60 fold | Inhibition at 1 µM (%) (MAP2K1 (MEK1); MAP2K1 (MEK1), 1 µM, ZLYTE, ATP 100, listed as WEL028, 1 µM): 108% | inhibition at 1 µM (MAP2K1 (MEK1); read-out: Inhibition at 1 µM (%), MAP2K1 (MEK1), 1 µM, ZLYTE, ATP 100): 113% | inhibition at 1 µM (INSR; 1 h): 11% | inhibition at 1 µM (INSR; [14]): 11%
